# Read-outs that look alike come from different tables or passages of the source.
# Assays:
# [1] = tested on: 1A2, 2B6, 2C9, 2C19, 2D6, and 3A4M/T; experiment: CYP inhibition panel summary; format: in vitro ADME, human; conditions: 10 µM
# EAE mice retina = experiment: Retina IHC in EAE; format: in vivo, mouse
# Excerpt: Animal Perfusions, tissue preparation, and IHC: Mice were deeply anesthetized and euthanized with isoflurane and intracardially perfused with ice‐cold PBS followed by 10% formalin in PBS (Fisher Scientific, Hampton, NH). Eyes, optic nerves, and brain were collected and processed for IHC as previously described[23],[28]. Antibody details are listed in Supplementary Table S6.
# Imaging and Quantification: Retina, optic nerve, and brain sections were imaged using an Olympus BX61 spinning disk confocal microscope with 10× and 40× objectives[23],[28]. Z-stack images were captured and processed using Slidebook 6 and cellSense software. Immunofluorescence intensity and cell counts were quantified using NIH ImageJ, and statistical analysis was performed with GraphPad Prism.
# RGC degeneration and pronounced GFAP immunoreactivity is evident in both MS and EAE[23],[28],[35],[36]. To quantify the number of RGCs, neuronal nuclear marker (NeuN) was used. […]
# Imaging and Quantification: Retina, optic nerve, and brain sections were imaged using an Olympus BX61 spinning disk confocal microscope equipped with 10x and 40x Super Apochromat objectives (Olympus America Inc., Cypress, CA) connected to a camera (Hamamatsu Orca‐R2). […] Immunofluorescence intensity and cell numbers were assessed with NIH ImageJ software (v1. 50i http://rsb.info.nih.gov/ij/) and quantified. […]
# [2] = microsomes
# [3] = hepatocytes
# CYP2C9 [4] = target: T1, CYP2C9 (Homo sapiens, UniProt P11712); conditions: 10 µM
# T1 sequence (P11712 whole entry): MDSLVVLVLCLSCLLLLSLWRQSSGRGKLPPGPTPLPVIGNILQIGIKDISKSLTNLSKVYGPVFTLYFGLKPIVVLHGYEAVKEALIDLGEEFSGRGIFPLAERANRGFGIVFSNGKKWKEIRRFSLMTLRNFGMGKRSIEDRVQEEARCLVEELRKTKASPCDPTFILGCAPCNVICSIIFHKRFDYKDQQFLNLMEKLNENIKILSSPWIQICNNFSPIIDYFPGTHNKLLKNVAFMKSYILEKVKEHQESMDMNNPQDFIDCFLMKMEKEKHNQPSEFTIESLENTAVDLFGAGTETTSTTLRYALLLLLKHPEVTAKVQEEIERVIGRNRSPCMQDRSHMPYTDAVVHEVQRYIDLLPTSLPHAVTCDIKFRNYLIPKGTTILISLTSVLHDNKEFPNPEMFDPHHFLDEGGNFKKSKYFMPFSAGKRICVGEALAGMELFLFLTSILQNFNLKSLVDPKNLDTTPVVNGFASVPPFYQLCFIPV
# CYP3A4 = CYP3A4 (Homo sapiens, UniProt P08684); conditions: 10 µM
# Sequence of CYP3A4 (P08684 whole entry): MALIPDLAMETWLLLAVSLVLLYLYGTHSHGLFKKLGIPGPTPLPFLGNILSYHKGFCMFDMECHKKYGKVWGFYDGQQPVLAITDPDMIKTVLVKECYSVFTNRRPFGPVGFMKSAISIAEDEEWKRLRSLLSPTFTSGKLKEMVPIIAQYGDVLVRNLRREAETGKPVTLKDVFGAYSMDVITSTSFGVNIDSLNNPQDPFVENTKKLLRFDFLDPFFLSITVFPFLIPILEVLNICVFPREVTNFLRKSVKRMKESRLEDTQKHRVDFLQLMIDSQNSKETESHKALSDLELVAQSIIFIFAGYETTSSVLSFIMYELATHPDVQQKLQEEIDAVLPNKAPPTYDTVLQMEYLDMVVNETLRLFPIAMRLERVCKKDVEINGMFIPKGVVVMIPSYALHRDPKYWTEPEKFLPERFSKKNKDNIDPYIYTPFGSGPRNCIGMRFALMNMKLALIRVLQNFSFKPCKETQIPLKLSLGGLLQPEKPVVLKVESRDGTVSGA
# [5] = plasma
# [6] = Oral PK of K102 at 40 mg/kg in female mice; format: in vivo, C57BL/6 mouse; conditions: female mouse, PO 40 mg/kg, mean
# [7] = Oral PK of K102 at 40 mg/kg in female rats; format: in vivo, Sprague–Dawley rat; conditions: female rat, PO 40 mg/kg, mean
# [8] = Oral PK of K102 at 40 mg/kg in female monkeys; format: in vivo, cynomolgus monkey; conditions: female monkey, PO 40 mg/kg, mean
# EAE mice = experiment: EAE clinical disease score; format: in vivo, C57BL/6J mouse; conditions: 5 mg/kg/day SC from peak disease
# Method: EAE induction and treatment: EAE was induced in 8–10-week-old wild-type C57BL/6J mice using MOG₃₅-₅₅ peptide[11],[14],[23]–[25]. Mice were scored daily using a standard clinical scale (0–5) and tested for their ability to stay on a rotarod. […] At peak disease (18–22 days post-immunization), animals were grouped into EAE+Vehicle, EAE+K102, and EAE+K110.
# Fig. 3 Experimental design for treatment effects in EAE. (A) Experimental plan. […] Following emulsion injection, mice were injected with pertussis (PTX). Mice were scored for their clinical EAE score daily. EAE mice (red) show signs of disease starting at days 8–17. At peak disease between the days […], therapeutic treatment started and continued daily until the end of the experiment (D35-45). […] N = 6–8 mice/group. Two-Way unbalanced ANOVA with Dunnett’s multiple comparisons test was performed. […]
# EAE induction and treatment: Eight to ten-week-old wild-type C57BL/6J mice were induced with active EAE using MOG35-55 peptide as previously described (1-5). […] Animals were scored daily for clinical EAE scores as follows: 0, unaffected; 1, complete tail limpness; 2, failure to right upon attempt to roll over; 3, partial hind limb paralysis; 4, complete hind limb paralysis; […]. At peak disease 18-22 dpi, mice were scored and separated into 3 groups: EAE+V, EAE+SHK-K102, and EAE+K110. […]
# CYP2C9 [9] = target: T1, CYP2C9; experiment: CYP inhibition; conditions: test compounds at 10 μM; substrate Diclofenac Sodium
# CYP2C19 = CYP2C19 (Homo sapiens, UniProt P33261); experiment: CYP inhibition; conditions: test compounds at 10 μM; substrate Mephenytoin
# Sequence of CYP2C19 (P33261 whole entry): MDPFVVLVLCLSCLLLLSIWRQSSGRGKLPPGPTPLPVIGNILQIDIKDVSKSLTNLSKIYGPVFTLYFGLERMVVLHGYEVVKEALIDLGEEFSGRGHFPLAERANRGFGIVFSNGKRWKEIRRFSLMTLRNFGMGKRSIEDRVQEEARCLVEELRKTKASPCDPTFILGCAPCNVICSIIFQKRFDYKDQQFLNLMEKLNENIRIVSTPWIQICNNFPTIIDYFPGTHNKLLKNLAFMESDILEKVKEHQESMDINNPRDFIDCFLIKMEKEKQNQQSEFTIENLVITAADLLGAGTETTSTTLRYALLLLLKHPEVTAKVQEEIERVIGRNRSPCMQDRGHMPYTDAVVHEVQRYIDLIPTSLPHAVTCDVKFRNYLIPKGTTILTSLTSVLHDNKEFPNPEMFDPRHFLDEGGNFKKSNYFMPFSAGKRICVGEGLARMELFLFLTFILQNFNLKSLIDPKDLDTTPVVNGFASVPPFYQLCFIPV
# [10] = Hepatocyte stability (human)
# [11] = Hepatocyte stability (mouse)
# [12] = Plasma protein binding (mouse)
# [13] = Liver microsome stability (human)
smiles,measurement,setting,value
"Oc1ccc(-n2nc3ccc(O)cc3c2Cl)c(O)c1 [Compound K110, IndCl-o-OH]","CYP inhibition, all other isoforms of the panel",[1],< 50%
same,"GFAP, mean value",EAE mice retina,6.695
same,"NeuN (RGCs), mean value",EAE mice retina,6.167
same,Liver Microsome Stability (Human) CLint,[2],13.64 µL/min/mg protein
same,Liver Microsome Stability (Human) % Remaining (30 min),[2]; 0.5 h,66.88%
same,Hepatocyte Stability (Mouse) t1/2,[3],6.15 min
same,Hepatocyte Stability (Mouse) % Remaining (15 min),[3]; 0.25 h,19.46%
same,CYP Inhibition Percentage CYP2C9,CYP2C9 [4],18.49%
same,CYP Inhibition Percentage CYP3A4-T,CYP3A4,45.13%
same,Protein Binding (% Bound) Mouse,[5],91.79%
"Cc1cc(O)ccc1-n1nc2ccc(O)cc2c1Cl [Compound K102, IndCl-o-Me]",AUCExtr,[6],13.0%
same,AUCInf,[6],855 ng·h/mL
same,AUCInf/D,[6],21.4 kg·ng·h/mL/mg
same,AUClast,[6],748 ng·h/mL
same,Cmax,[6],945 ng/mL
same,MRTInf,[6],248 min
same,Tmax,[6],15 min
same,t1/2,[6],256 min
same,AUCInf/D,[7],235.1 kg·ng·h/mL/mg
same,AUClast,[7],9403 ng·h/mL
same,Cmax,[7],1657 ng/mL
same,Tmax,[7],15 min
same,AUCInf/D,[8],59.3 kg·ng·h/mL/mg
same,AUClast,[8],2373.0 ng·h/mL
same,Cmax,[8],355.3 ng/mL
same,Tmax,[8],79.8 min
same,EAE clinical disease,EAE mice,superior attenuation
same,CYP Inhibition Percentage CYP2C9,CYP2C9 [9],36.09%
same,CYP Inhibition Percentage CYP2C19,CYP2C19,50.50%
same,Hepatocyte Stability (Human) % Remaining (15 min),[10]; 15 min,60.05%
same,Hepatocyte Stability (Human) CLint,"[10]; human, hepatocytes",72.12 µL/min/mg protein
same,Hepatocyte Stability (Mouse) CLint,[11],86.57 µL/min/mg protein
same,Hepatocyte Stability (Mouse) t1/2,"[11]; mouse, hepatocytes",16.01 min
same,Protein Binding (% Bound) Mouse,[12],96.81%
same,Liver Microsome Stability (Human) % Remaining (30 min),[13]; 30 min,78.03%
same,Liver Microsome Stability (Human) CLint,"[13]; human, microsomes",8.47 µL/min/mg protein

# Reference: publication PMC12508063, “Chloroindazole based estrogen receptor β ligands with favorable pharmacokinetics promote functional remyelination and visual recovery” (Scientific Reports, 2025)
